Assay results published in patent US20240376163A1, “PEPTIDE FOR INHIBITING CALCINEURIN AND USE THEREOF” (Seoul National University R&DB Foundation, priority 2023, published 2024).

System: Jurkat T cells
Experiment: Real-time quantitative PCR of T-cell activation genes in Jurkat T cells
Assay type: cell-based
Protocol: Jurkat T cells were collected by QIAzol Lysis Reagent (Qiagen) to extract total RNA. cDNA was reverse transcribed from the isolated RNA using AMV Reverse Transcriptase and random hexamers. Real-time quantitative PCR for each cDNA was performed using TB Green® Premix Ex Taq™ (TaKaRa, Kusatsu, Japan) in the CFX Connect Real-time PCR Detection System (Bio-Rad, Hercules, CA, USA), and normalized to expression of 18S rRNA or GAPDH.

With PEITVTPPTP [CABIN1-L-1-2] the “RNA levels of T-cell activation genes by qRT-PCR” value was “reduced RNA levels of these genes more effectively than VIVIT peptides”.
